Source: EPA's ToxValDB 9.5 (doi:10.2903/j.efsa.2005.34ar)
In brackets after ≈: the same amount, converted by molar mass.

Experiments:
[1] = system: Apis mellifera; conditions: acute, mortality
[2] = system: Canidae; conditions: chronic; duration: 1 years; oral; Dog Other; clinical signs
[3] = system: Colinus virginianus
[4] = system: Daphnia magna; conditions: chronic/long-term; duration: 21 days; reproduction
[5] = system: Lepomis macrochirus; conditions: acute; duration: 96 hours; mortality
[6] = system: Oncorhynchus mykiss; conditions: chronic/long-term; duration: 21 days
[7] = system: Rattus norvegicus
[8] = system: Tagia sp.; conditions: acute; mortality
[9] = system: Aphidius rhopalosiphi; assay: LR50; higher = less toxic; conditions: not reported; duration: 14 days; mortality
[10] = system: Typhlodromus pyri; assay: LR50; higher = less toxic; conditions: acute; duration: 14 days; mortality

SMILES: C#CCOC(=O)[C@@H](C)Oc1ccc(Oc2ncc(Cl)cc2F)cc1 [Clodinafop-propargyl]
- LD50 ([1]; dermal): 40.9 µg/piece
- LD50 ([1]; duration: 48 hours, oral, unspecified): > 93.7 µg/piece
- NOAEL [2]: 3.4 mg/kg-day
- LC50 ([3]; acute, oral, diet, mortality): > 980 mg/kg-day
- LD50 ([3]; acute, oral, mortality): 1360 mg/kg
- NOEC ([3]; reproduction developmental): 43 mg/kg-day
- NOEC [4]: 0.23 mg/L
- LC50 [5]: 0.21 µg/mL (≈ 0.6 µM)
- NOEC [6]: 0.1 mg/L
- LD50 ([7]; acute, oral, M, mortality): 1390 mg/kg
- NOAEL ([7]; chronic, duration: 2 years, oral, clinical signs): 0.32 mg/kg-day
- NOAEL ([7]; developmental, development): 5 mg/kg-day
- NOAEL ([7]; reproduction developmental, reproduction): 4.63 mg/kg-day
- LC50 [8]: 197 mg/kg
- LR50 [9]: 3.1 g/ha
- LR50 [10]: 20 g/ha
